{"source": "paper PMC10487708", "about": "“Chlorin E6-Curcumin-Mediated Photodynamic Therapy Promotes an Anti-Photoaging Effect in UVB-Irradiated Fibroblasts” (International Journal of Molecular Sciences, 2023)", "key": {"[1]": {"test_system": "UVB-irradiated BALB/c 3T3 cells", "assay": "MTT cell viability of UVB-irradiated BALB/c 3T3 cells", "format": "cell-based, mouse", "settings": "UVB 200 mJ/cm^2, 0.2–8 μM, 24 h", "procedure": "To investigate the proper dose of UVB irradiation, BALB/c 3T3 cells were exposed to different doses of UVB (50, 100, 200, 800, 1600 mJ/cm^2) for 24 h. […] Therefore, the dose of 200 mJ/cm^2 was used in the subsequent in vitro studies to evaluate the protective effect of Ce6-PDT. The effect of Ce6-curcumin derivatives on BALB/c 3T3 cell viability was evaluated with the MTT assay.\nFigure 6 The effect of Ce6-curcumin derivatives on UVB-irradiated BALB/c 3T3 cells. (A) Cell viability of BALB/c 3T3 cells irradiated with different doses of UVB (50, 100, 200, 800, 1600 mJ/cm^2) for 24 h. […] Data were represented as mean ± SD from at least three independent experiments and analyzed by one-way ANOVA with Tukey’s post hoc test, * p < 0.01, compared with UVB-treated groups.\nBALB/c 3T3 cells were seeded at a density of 1 × 10^4 cells/well in 96-well plates for 24 h. The culture medium was replaced with phosphate-buffered saline (PBS), and the cells were pretreated with UVB (200 mJ/cm^2) before being incubated for 24 h incubation in an FBS-free medium containing different concentrations of Ce6-curcumin derivatives. Cell viability was measured by MTT assay."}, "[2]": {"assay": "ABTS radical scavenging activity", "format": "biochemical", "procedure": "[…] in 2.5 mM potassium persulfate for more than 16 h to develop 7 mM 2,2′-azinobis-(3-ethylbenzothiazoline-6-sulfonic acid diammonium salt) (ABTS), and ethanol was diluted to obtain an absorbance of 0.3 at 620 nm. Each composite sample was diluted by concentration, and 100 μL of the sample was put into each well along with 50 μL each of ABTS reagent and solvent; reacted at room temperature for 10 min, and absorbance was measured at 620 nm. ABTS activity inhibition (%) = 100 − [test group-blank]/(control group-blank) × 100]"}, "MMP-2": {"test_system": "MMP-2", "assay": "Gelatin zymography of MMP-2 in UVB-exposed Hs68 cells", "format": "cell-based, human", "settings": "UVB 200 mJ/cm^2, LED 20 J/cm^2, Hs68", "excerpt": "Since MMP-2 is a […] that plays an important role in photoaging, we examined the effect of Ce6-curcumin derivatives and LED treatment on the enzyme activities of UV-induced MMP-2 by gelatin zymography. On gelatin zymography, UVB irradiation led to the activation of MMP-2 in Hs68 cells, and this increase was inhibited by Ce6-curcumin derivatives along with LED treatments. On increasing the dose of the Ce6-curcumin derivatives, the MMP-2 was decreased (Figure 7A–C).\nData are expressed as mean ± SD from at least three independent experiments and were analyzed by one-way ANOVA with Tukey’s post hoc test, * p < 0.01 compared with control. ^# p < 0.05 compared with the UVB and LED-treated groups.\nMMP-2 activity in cell culture medium was evaluated by gelatin zymography assay as described. After UVB (200 mJ/cm^2) irradiation, Hs68 cells were cultured for 24 h. Ce6-curcumin derivatives were diluted into a medium containing 1% FBS and cultured for 30 min. After 30 min, the LED was irradiated with 20 J/cm^2, cultured for 3 h, washed with 1× PBS, and 300 μL of FBS-free medium was added and cultured for 44 h. […] The activity of MMPs was measured by quantifying the transparent band by proteolytic activity after staining with Coomassie Brilliant Blue staining solution and further distaining with water, methanol, and acetic acid (50:40:10)."}, "[3]": {"assay": "Ex vivo fluorescence imaging and biodistribution in ICR mice", "settings": "2.5 mg/kg IV, 3 h post-injection", "procedure": "To confirm the organ-specific signaling intensities of different Ce6-curcumin derivatives, we measured ex-vivo FLI in different organs of ICR mice after 3 h of intravenous drug administration. The drug interval time of 3 h before light irradiation in PDT for Ce6-curcumin derivatives can be explained by the pharmacokinetics and imaging study of Ce6 provided in Figures S1 and S2. Three hours after IV injection of 2.5 mg/kg of Ce6- hexane-curcumin, Ce6-propane-curcumin, and Ce6-diPEG-curcumin, ex-vivo images were obtained. […] Furthermore, the fluorescence intensity of Ce6-curcumin derivatives was highest in organs with a larger blood supply, including the liver and lungs.\n(B) Biodistribution of the three Ce6-curcumin derivatives in the organ lysates after 3 h post-injection. The quantitation of fluorescence signals of Ce6 derivatives has been represented as a bar. Data were represented as mean ± SD from at least three independent experiments and were analyzed by one-way ANOVA with Tukey’s post hoc test: * p < 0.01, compared with vehicle-treated control of the spleen, ^# p < 0.01, compared with vehicle-treated control of the lungs, ^& p < 0.01, compared with vehicle-treated control of the liver.\nBiodistribution analysis for Ce6 and Ce6-curcumin derivatives was calculated by measuring tissue fluorescence. […] The fluorescence intensity was normalized to the tissue weight."}, "[4]": {"settings": "LED light, read-out: LED Condition (EC50, μM) ABTS radical scavenging"}, "[5]": {"settings": "dark, read-out: Dark Condition (EC50, μM) ABTS radical scavenging"}}, "note": "Where two headings read alike, the source gives them in different places."}
{"molecule": "C=Cc1c(C)c2cc3nc(c(CC(=O)OC)c4[nH]c(cc5nc(cc1[nH]2)C(C)=C5CC)c(C)c4C(=O)NCCCOCCOCCOCCCNC(=O)CCCC(=O)Oc1ccc(/C=C/C(=O)CC(=O)/C=C/c2ccc(O)c(OC)c2)cc1OC)C(CCC(=O)OC)C3C", "note": "(stereo not shown) [Ce6-diPEG-curcumin]", "values": [{"measurement": "concentration from which cytotoxicity was shown in UVB-irradiated BALB/c 3T3 cells", "setting": "[1]", "value": "≥ 4", "unit": "µM"}, {"measurement": "EC50", "setting": "[2]; [4]", "value": "22.3 ± 2.62", "unit": "µM"}, {"measurement": "ABTS EC50 value compared to the standard antioxidant 5-ALA hydrochloride", "setting": "[2]; dark", "value": "~74", "unit": "%"}, {"measurement": "EC50", "setting": "[2]; [5]", "value": "15.51 ± 0.01", "unit": "µM"}, {"measurement": "UVB-induced MMP-2 expression (gelatin zymography)", "setting": "MMP-2; 200 nM", "value": "highest attenuation of MMP-2 expression"}, {"measurement": "ex vivo fluorescence signal in organs", "setting": "[3]", "value": "highest fluorescence"}]}
{"molecule": "C=Cc1c(C)c2cc3nc(c(CC(=O)OC)c4[nH]c(cc5nc(cc1[nH]2)C(C)=C5CC)c(C)c4C(=O)NCCCNC(=O)CCCC(=O)Oc1ccc(/C=C/C(=O)CC(=O)/C=C/c2ccc(O)c(OC)c2)cc1OC)C(CCC(=O)OC)C3C", "note": "(stereo not shown) [Ce6-propane-curcumin]", "values": [{"measurement": "cell viability of UVB-irradiated BALB/c 3T3 cells", "setting": "[1]", "value": "not affected"}, {"measurement": "EC50", "setting": "[2]; [4]", "value": "34.9 ± 8.16", "unit": "µM"}, {"measurement": "EC50", "setting": "[2]; [5]", "value": "18.9 ± 3.04", "unit": "µM"}, {"measurement": "UVB-induced MMP-2 expression (gelatin zymography)", "setting": "MMP-2; 100 nM", "value": "significant reductions"}]}
